Laboratory results reported in ChEMBL document CHEMBL4265943, “Design and synthesis of potent dual inhibitors of JAK2 and HDAC based on fusing the pharmacophores of XL019 and vorinostat” (Eur J Med Chem, 2018).
One block for each molecule: values may come before it.

How the values were obtained:
[1] = target: Histone deacetylase 1 (Homo sapiens, UniProt Q13547); assay: Inhibition of HDAC1 (unknown origin) using Arg-His-Lys-Lys(Ac) as substrate preincubated with enzyme followed by substrate addition for 2 hrs and measured for 1.5 hrs at 15 mins time interval by fluorescence assay
Sequence of Histone deacetylase 1 (Q13547 whole entry): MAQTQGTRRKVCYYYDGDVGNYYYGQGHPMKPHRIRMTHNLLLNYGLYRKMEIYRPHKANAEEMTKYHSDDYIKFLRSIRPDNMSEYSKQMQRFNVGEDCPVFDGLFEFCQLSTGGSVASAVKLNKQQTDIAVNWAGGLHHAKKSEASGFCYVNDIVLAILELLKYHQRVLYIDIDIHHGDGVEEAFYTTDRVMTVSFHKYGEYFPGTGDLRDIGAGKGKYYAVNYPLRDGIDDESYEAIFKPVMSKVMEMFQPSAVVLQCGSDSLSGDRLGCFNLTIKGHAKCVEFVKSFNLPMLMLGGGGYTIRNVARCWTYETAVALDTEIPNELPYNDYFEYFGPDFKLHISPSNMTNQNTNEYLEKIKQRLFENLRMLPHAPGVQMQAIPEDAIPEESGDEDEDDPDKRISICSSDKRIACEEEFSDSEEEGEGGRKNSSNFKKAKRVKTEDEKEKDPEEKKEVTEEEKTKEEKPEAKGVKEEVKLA

[2] = test system: Jurkat; assay: Antiproliferative activity against human Jurkat cells after 72 hrs by MTT assay; assay type: functional, cell-based
[3] = species: Homo sapiens; assay: Selectivity ratio of IC50 for HDAC1 (unknown origin) to IC50 for HDAC6 (unknown origin)
[4] = target: Tyrosine-protein kinase JAK2 (Homo sapiens, UniProt O60674); assay: Inhibition of human JAK2 using poly(Glu:Tyr)(4:1) as substrate preincubated for 20 mins followed by [gamma33P]ATP addition measured after 120 mins by ion exchange filter paper method
Sequence of Tyrosine-protein kinase JAK2 (O60674 whole entry): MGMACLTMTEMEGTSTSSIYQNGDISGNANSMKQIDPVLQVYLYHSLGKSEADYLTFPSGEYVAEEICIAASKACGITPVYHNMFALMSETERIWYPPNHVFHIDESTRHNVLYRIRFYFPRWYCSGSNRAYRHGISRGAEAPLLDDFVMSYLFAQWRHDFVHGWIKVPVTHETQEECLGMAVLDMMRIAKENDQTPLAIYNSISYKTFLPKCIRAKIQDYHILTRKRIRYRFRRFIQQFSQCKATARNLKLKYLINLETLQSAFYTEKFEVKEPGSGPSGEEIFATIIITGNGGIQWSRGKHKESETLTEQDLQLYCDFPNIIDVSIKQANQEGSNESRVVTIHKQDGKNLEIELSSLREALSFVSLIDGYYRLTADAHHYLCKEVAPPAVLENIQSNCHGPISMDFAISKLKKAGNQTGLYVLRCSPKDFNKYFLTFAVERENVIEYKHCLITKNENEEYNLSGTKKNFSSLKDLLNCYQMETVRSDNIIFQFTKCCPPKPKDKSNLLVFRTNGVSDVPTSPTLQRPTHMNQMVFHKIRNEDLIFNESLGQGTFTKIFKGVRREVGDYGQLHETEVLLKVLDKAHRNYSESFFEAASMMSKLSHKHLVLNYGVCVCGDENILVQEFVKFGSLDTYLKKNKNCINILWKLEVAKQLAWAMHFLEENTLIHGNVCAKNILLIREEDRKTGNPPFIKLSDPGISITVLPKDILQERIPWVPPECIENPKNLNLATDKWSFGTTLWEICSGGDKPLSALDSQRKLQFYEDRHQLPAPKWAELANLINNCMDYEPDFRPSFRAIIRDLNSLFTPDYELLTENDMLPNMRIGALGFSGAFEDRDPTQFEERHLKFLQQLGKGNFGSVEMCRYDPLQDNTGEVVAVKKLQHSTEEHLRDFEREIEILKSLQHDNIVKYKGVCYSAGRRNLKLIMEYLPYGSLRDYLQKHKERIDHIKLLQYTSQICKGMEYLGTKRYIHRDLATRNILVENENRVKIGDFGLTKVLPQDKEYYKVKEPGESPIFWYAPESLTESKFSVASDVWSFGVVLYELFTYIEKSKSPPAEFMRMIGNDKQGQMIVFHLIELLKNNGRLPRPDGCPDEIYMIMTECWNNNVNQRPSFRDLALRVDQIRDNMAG

[5] = test system: HCT-116; assay: Antiproliferative activity against human HCT116 cells after 72 hrs by MTT assay; assay type: functional, cell-based; conditions: HCT-116, 72 h
[6] = test system: PC-3; assay: Antiproliferative activity against human PC3 cells after 72 hrs by MTT assay; assay type: functional, cell-based; conditions: PC-3, 72 h
[7] = test system: MDA-MB-231; assay: Antiproliferative activity against human MDA-MB-231 cells after 72 hrs by MTT assay; assay type: functional, cell-based; conditions: MDA-MB-231, 72 h
[8] = target: T1, Protein deacetylase HDAC6 (Homo sapiens, UniProt Q9UBN7); assay: Inhibition of HDAC6 (unknown origin) using Arg-His-Lys-Lys(Ac) as substrate preincubated with enzyme followed by substrate addition for 2 hrs and measured for 1.5 hrs at 15 mins time interval by fluorescence assay
T1 sequence (Q9UBN7 whole entry): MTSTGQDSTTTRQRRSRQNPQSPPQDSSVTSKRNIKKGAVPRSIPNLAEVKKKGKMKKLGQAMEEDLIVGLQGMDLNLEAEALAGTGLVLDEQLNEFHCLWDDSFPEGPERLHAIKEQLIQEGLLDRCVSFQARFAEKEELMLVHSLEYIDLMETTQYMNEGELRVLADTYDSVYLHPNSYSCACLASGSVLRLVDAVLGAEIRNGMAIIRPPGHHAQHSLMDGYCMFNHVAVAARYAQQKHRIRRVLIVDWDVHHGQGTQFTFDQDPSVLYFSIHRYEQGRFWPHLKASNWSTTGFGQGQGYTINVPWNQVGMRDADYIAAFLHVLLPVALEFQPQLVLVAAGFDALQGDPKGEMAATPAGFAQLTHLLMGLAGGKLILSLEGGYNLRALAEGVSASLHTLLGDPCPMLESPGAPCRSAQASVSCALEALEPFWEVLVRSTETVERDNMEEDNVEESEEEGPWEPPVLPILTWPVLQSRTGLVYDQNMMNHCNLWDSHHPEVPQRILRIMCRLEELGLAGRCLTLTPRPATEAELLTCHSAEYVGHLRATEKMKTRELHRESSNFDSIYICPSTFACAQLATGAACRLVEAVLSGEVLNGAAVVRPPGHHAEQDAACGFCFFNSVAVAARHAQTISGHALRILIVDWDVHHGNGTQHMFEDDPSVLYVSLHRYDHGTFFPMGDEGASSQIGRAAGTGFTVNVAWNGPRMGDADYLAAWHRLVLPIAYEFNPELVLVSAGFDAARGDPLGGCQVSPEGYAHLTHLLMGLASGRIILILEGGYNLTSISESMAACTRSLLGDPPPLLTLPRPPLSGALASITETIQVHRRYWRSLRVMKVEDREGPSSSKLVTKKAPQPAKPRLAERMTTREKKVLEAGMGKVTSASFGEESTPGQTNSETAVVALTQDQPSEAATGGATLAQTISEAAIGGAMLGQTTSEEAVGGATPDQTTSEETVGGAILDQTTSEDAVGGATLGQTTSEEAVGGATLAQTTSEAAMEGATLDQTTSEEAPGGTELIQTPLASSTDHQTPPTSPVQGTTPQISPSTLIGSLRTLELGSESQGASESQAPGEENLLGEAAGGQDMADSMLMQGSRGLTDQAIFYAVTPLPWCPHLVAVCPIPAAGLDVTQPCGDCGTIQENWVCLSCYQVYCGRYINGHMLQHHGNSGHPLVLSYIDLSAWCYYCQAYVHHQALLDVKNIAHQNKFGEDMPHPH

[9] = test system: HEL 92.1.7; assay: cells; assay type: functional, cell-based; conditions: Homo sapiens, HEL 92.1.7, 72 h
Description: Antiproliferative activity against human HEL 92.1.7 cells after 72 hrs by MTT assay

[10] = test system: MCF7; assay: Antiproliferative activity against human MCF7 cells after 72 hrs by MTT assay; assay type: functional, cell-based; conditions: MCF7, 72 h
[11] = Selectivity index, ratio of CC50 for mouse TAMH cells to IC50 for human MDA-MB-231 cells; assay type: toxicity; conditions: TAMH cells (CC50) and MDA-MB-231 cells (IC50)
[12] = test system: MCF7; assay: Induction of apoptosis in human MCF7 cells assessed as live cells at 1.64 uM after 72 hrs by Annexin V-FITC/propidium iodide staining based flow cytometry (reference value: 95.05%); assay type: functional
[13] = Antiproliferative activity against human AC10 cells after 72 hrs by MTT assay; assay type: cell-based
[14] = test system: PC-3; assay: Induction of apoptosis in human PC3 cells assessed as late apoptotic cells at 1.07 uM after 72 hrs by Annexin V-FITC/propidium iodide staining based flow cytometry (reference value: 1.01%); assay type: functional
[15] = Selectivity index, ratio of CC50 for human AC10 cells to IC50 for human MCF7 cells; assay type: toxicity; conditions: AC10 cells (CC50) and MCF7 cells (IC50)
[16] = Selectivity index, ratio of CC50 for human AC10 cells to IC50 for human PC3 cells; assay type: toxicity; conditions: AC10 cells (CC50) and PC3 cells (IC50)
[17] = test system: MCF7; assay: Induction of apoptosis in human MCF7 cells assessed as necrotic cells at 1.64 uM after 72 hrs by Annexin V-FITC/propidium iodide staining based flow cytometry (reference value: 2.17%); assay type: functional
[18] = Antiproliferative activity against mouse TAMH cells after 72 hrs by MTT assay; assay type: cell-based
[19] = test system: MDA-MB-231; assay: Induction of apoptosis in human MDA-MB-231 cells assessed as necrotic cells at 0.85 uM after 72 hrs by Annexin V-FITC/propidium iodide staining based flow cytometry (reference value: 5.45%); assay type: functional
[20] = test system: PC-3; assay: Induction of apoptosis in human PC3 cells assessed as live cells at 1.07 uM after 72 hrs by Annexin V-FITC/propidium iodide staining based flow cytometry (reference value: 96.36%); assay type: functional
[21] = test system: MCF7; assay: Induction of apoptosis in human MCF7 cells assessed as late apoptotic cells at 1.64 uM after 72 hrs by Annexin V-FITC/propidium iodide staining based flow cytometry (reference value: 1.59%); assay type: functional
[22] = test system: MDA-MB-231; assay: Induction of apoptosis in human MDA-MB-231 cells assessed as live cells at 0.85 uM after 72 hrs by Annexin V-FITC/propidium iodide staining based flow cytometry (reference value: 90.98%); assay type: functional
[23] = test system: HCT-116; assay: Induction of apoptosis in human HCT116 cells assessed as necrotic cells at 0.99 uM after 72 hrs by Annexin V-FITC/propidium iodide staining based flow cytometry (reference value: 1.54%); assay type: functional
[24] = test system: MDA-MB-231; assay: Induction of apoptosis in human MDA-MB-231 cells assessed as late apoptotic cells at 0.85 uM after 72 hrs by Annexin V-FITC/propidium iodide staining based flow cytometry (reference value: 2.12%); assay type: functional
[25] = test system: MCF7; assay: Induction of apoptosis in human MCF7 cells assessed as early apoptotic cells at 1.64 uM after 72 hrs by Annexin V-FITC/propidium iodide staining based flow cytometry (reference value: 1.19%); assay type: functional
[26] = test system: PC-3; assay: Induction of apoptosis in human PC3 cells assessed as early apoptotic cells at 1.07 uM after 72 hrs by Annexin V-FITC/propidium iodide staining based flow cytometry (reference value: […]%); assay type: functional
[27] = test system: PC-3; assay: Induction of apoptosis in human PC3 cells assessed as necrotic cells at 1.07 uM after 72 hrs by Annexin V-FITC/propidium iodide staining based flow cytometry (reference value: 0.66%); assay type: functional
[28] = test system: HCT-116; assay: Induction of apoptosis in human HCT116 cells assessed as late apoptotic cells at 0.99 uM after 72 hrs by Annexin V-FITC/propidium iodide staining based flow cytometry (reference value: 1.45%); assay type: functional
[29] = test system: HCT-116; assay: Induction of apoptosis in human HCT116 cells assessed as live cells at 0.99 uM after 72 hrs by Annexin V-FITC/propidium iodide staining based flow cytometry (reference value: 95.7%); assay type: functional
[30] = Selectivity index, ratio of CC50 for mouse TAMH cells to IC50 for human PC3 cells; assay type: toxicity; conditions: TAMH cells (CC50) and PC3 cells (IC50)
[31] = Selectivity index, ratio of CC50 for mouse TAMH cells to IC50 for human MCF7 cells; assay type: toxicity; conditions: TAMH cells (CC50) and MCF7 cells (IC50)
[32] = test system: MDA-MB-231; assay: Induction of apoptosis in human MDA-MB-231 cells assessed as early apoptotic cells at 0.85 uM after 72 hrs by Annexin V-FITC/propidium iodide staining based flow cytometry (reference value: 1.45%); assay type: functional
[33] = Selectivity index, ratio of CC50 for human AC10 cells to IC50 for human MDA-MB-231 cells; assay type: toxicity; conditions: AC10 cells (CC50) and MDA-MB-231 cells (IC50)
[34] = test system: HCT-116; assay: Induction of apoptosis in human HCT116 cells assessed as early apoptotic cells at 0.99 uM after 72 hrs by Annexin V-FITC/propidium iodide staining based flow cytometry (reference value: 1.31%); assay type: functional

IC50 [1]: 384 nM
IC50 [2]: > 10000 nM
Ratio IC50 [3]: 100
IC50 [4]: 2.6 nM
IC50 [5]: 34100 nM
IC50 [6]: 18600 nM
IC50 [7]: 14600 nM
IC50 [8]: 4.6 nM
IC50 [9]: > 10000 nM
IC50 [10]: 26700 nM
Structure (SMILES): CC(=O)Nc1ccc(-c2ccnc(Nc3cccc(NC(=O)CCCCC(=O)NO)c3)n2)cc1

IC50 [1]: 77 nM
IC50 [4]: 4.6 nM
IC50 [5]: 990 nM
IC50 [6]: 1020 nM
IC50 [7]: 910 nM
IC50 [8]: 3.1 nM
IC50 [10]: 1610 nM
Structure (SMILES): CN1CCN(c2ccc(Nc3nccc(-c4ccc(NC(=O)CCCCCCC(=O)NO)cc4)n3)cc2)CC1
selectivity ratio [11]: 5.98
Activity [12]: 88.21%
CC50 at 72 h [13]: 3310 nM
Activity [14]: 19.83%
selectivity ratio [15]: 2.06
selectivity ratio [16]: 3.25
Activity [17]: 1.88%
CC50 at 72 h [18]: 5440 nM
Activity [19]: 6.84%
Activity [20]: 5.35%
Activity [21]: 3.37%
Activity [22]: 13.2%
Activity [23]: 4.69%
Activity [24]: 40.56%
Activity [25]: 6.54%
Activity [26]: 73.28%
Activity [27]: 1.54%
Activity [28]: 6.43%
Activity [29]: 83.01%
selectivity ratio [30]: 5.33
selectivity ratio [31]: 3.38
Activity [32]: 39.4%
selectivity ratio [33]: 3.64
Activity [34]: 5.87%
